# Measurements as given in ChEMBL document CHEMBL1140220, “Synthetic and crystallographic studies of a new inhibitor series targeting Bacillus anthracis dihydrofolate reductase” (J Med Chem, 2008).
# Molecular target: T1, Dihydrofolate reductase (Homo sapiens, UniProt P00374)
# T1 sequence (P00374 whole entry): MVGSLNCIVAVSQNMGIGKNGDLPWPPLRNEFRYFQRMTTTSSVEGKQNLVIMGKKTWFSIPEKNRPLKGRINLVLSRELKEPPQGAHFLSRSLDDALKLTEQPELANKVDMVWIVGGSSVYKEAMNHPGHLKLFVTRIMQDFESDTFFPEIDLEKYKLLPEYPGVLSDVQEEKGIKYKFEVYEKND
row,SMILES,IC50 [nM]
1,CCc1nc(N)nc(N)c1C#CCc1ccccc1,360
2,CCc1nc(N)nc(N)c1C#CCc1cccc(OC)c1OC,130
